# Source: article PMC6965684, “Characterization of binding, functional activity, and contractile responses of the selective 5‐HT1F receptor agonist lasmiditan” (British Journal of Pharmacology, 2019)
# Where a name gives a salt, the structure may show the parent alone. Read-outs that look alike come from different tables or passages of the source.
# Assays:
# 5-HT1A receptor [1] = molecular target: T1, 5-HT1A receptor (Homo sapiens, UniProt P08908); experiment: biochemical; type: CHO-K1 membranes; set-up: GTPγS agonist functional assay; settings: GTPγS
# T1 construct: gene HTR1A; full-length human recombinant receptor in CHO-K1 cells (Ogeda); crude membranes
# T1 sequence (P08908 1-422): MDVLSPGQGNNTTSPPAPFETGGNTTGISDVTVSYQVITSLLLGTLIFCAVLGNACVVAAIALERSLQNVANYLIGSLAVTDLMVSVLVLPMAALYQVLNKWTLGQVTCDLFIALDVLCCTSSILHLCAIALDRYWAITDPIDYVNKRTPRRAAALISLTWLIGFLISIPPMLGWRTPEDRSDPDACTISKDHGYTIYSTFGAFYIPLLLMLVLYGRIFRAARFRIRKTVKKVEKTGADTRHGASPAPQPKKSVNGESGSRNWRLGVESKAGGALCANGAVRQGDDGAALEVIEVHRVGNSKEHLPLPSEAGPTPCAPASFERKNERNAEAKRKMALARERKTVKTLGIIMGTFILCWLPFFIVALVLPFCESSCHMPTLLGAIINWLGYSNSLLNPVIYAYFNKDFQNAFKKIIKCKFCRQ
# Excerpt: Additionally, the reference values obtained were compared to historical values obtained from the same receptor and used to validate the experimental session. […] For the new assays developed in this study (i.e., 5‐ht1E receptor), the two independent pIC50 determined must be concordant with a 1 log unit interval for the assays to be validated.
# 5-HT1A receptor [2] = molecular target: T1, 5-HT1A receptor; experiment: biochemical; type: CHO-K1 membranes; set-up: radioligand competition binding on cell membranes, filtration and TopCount scintillation counting; settings: radioligand displacement; read-out: 5‐HT1A / pIC50 (converted)
# Method: (§1) Competition binding was performed in duplicate in the wells of a 96‐well plate containing binding buffer (optimized for each receptor), cell membrane extracts (approximately 20,000 cells distributed in the 96‐well plate), radiotracer, and test agonist. Non‐specific binding was determined by co‐incubation with 200‐fold excess of competitor. Cells were incubated and exposed to varying concentrations (1 pM to 10 μM) of a range of displacer agonists (see below). The samples were incubated in a final volume of 0.1 ml and then filtered over Unifilter plates (Perkin Elmer, Massachusetts, USA) pretreated for 2 hr to limit tracer non‐specific binding. Filters were washed five times with 0.5 ml of ice‐cold washing buffer (tris 50 mM pH 7.4) and 50 μl of Microscint 20 (Perkin Elmer) were added to each filter. The plates were incubated 15 min at room temperature on an orbital shaker and then counted with a TopCount™ (Perkin Elmer) for 1 min per well. […] Additionally, the reference values obtained were compared to historical values obtained from the same receptor and used to validate the experimental session. […] For the new assays developed in this study (i.e., 5‐ht1E receptor), the two independent pIC50 determined must be concordant with a 1 log unit interval for the assays to be validated.
# 5-HT1A receptor [3] = molecular target: T1, 5-HT1A receptor; experiment: cell-based; set-up: species or system CHO-K1; cAMP HTRF agonist assay, Gi coupled receptors, inhibition of stimulated cAMP; settings: cAMP
# Method: Concentration–response curves were performed in parallel with the agonists. […] After addition of the lysis buffer and 1‐hr incubation, cAMP concentrations were estimated according to the manufacturer specification with the HTRF kit (Cisbio International, Codelet, France). In brief, increasing concentrations of agonists were added to stably transfected cells in buffer in an Optiplate (PerkinElmer Life Sciences, Massachusetts, USA). The plates were incubated, and cells were then lysed by the addition of HTRF reagents (cAMP‐Cryptate and anti‐cAMP‐d2 reagents) and diluted in lysis buffer, followed by incubation at room temperature. […] Additionally, the reference values obtained were compared to historical values obtained from the same receptor and used to validate the experimental session. […] For the new assays developed in this study (i.e., 5‐ht1E receptor), the two independent pIC50 determined must be concordant with a 1 log unit interval for the assays to be validated.
# 5-HT2A receptor [4] = molecular target: T2, 5-HT2A receptor (Homo sapiens, UniProt P28223); experiment: cell-based; set-up: species or system CHO-K1; IPOne HTRF agonist assay, IP1 accumulation in adherent transfected cells
# T2 construct: gene HTR2A; full-length human recombinant receptor in CHO-K1 cells (Ogeda); crude membranes
# T2 sequence (P28223 whole entry): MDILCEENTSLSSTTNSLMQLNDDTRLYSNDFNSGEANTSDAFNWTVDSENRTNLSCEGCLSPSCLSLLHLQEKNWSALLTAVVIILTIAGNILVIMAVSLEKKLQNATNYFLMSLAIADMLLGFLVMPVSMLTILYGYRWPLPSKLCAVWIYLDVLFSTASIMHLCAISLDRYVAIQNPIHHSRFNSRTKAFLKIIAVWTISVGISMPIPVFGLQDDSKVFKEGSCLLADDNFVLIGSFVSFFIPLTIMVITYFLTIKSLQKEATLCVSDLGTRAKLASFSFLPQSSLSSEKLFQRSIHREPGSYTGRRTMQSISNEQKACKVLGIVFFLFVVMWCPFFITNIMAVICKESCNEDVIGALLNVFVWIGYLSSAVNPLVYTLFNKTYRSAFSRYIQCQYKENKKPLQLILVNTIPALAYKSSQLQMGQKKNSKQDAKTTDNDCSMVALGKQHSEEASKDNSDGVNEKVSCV
# Method: The assay was performed on adherent cells. For agonist testing, the medium was removed and 20 μl of assay buffer plus 20 μl of the studied agonist or the reference agonist were added in each well. The plate was incubated for 60 min at 37°C with 5% CO2. IP1‐D2 reagent and anti‐IP1 cryptate reagents were dispensed in the wells, and IP1 concentrations were then measured following the manufacturer instructions (IPOne HTRF assay kit; Cisbio International, Codolet, France). In brief, increasing concentrations of agonists were added to stably transfected cells in buffer in an Optiplate (PerkinElmer Life Sciences). The plates were incubated, and cells were then lysed by the addition of HTRF reagents (IP1‐D2 reagent and anti‐IP1 cryptate reagents) and diluted in lysis buffer, followed by incubation at room temperature. […] Additionally, the reference values obtained were compared to historical values obtained from the same receptor and used to validate the experimental session. […] For the new assays developed in this study (i.e., 5‐ht1E receptor), the two independent pIC50 determined must be concordant with a 1 log unit interval for the assays to be validated. […]
# 5-HT2A receptor [5] = molecular target: T2, 5-HT2A receptor; experiment: biochemical; type: CHO-K1 membranes; set-up: radioligand competition binding on cell membranes, filtration and TopCount scintillation counting; settings: for Ki: read-out: 5‐HT2A / pKi (converted)
# Method: as §1, with “validated. […]” for “validated.”
# [6] = IP, read-out: 5‐HT2A / IP (converted)
# [7] = radioligand displacement, read-out: 5‐HT2A / pIC50 (converted)
SMILES,EC50 (5-HT1A receptor [1]),IC50 (5-HT1A receptor [2]),EC50 (5-HT1A receptor [3]),EC50 (5-HT2A receptor [4]; [6]),IC50 (5-HT2A receptor [5]; [7]),Ki (5-HT2A receptor [5]; radioligand displacement),EC50 (5-HT2A receptor [4]),IC50 (5-HT2A receptor [5])
CNC1CCc2[nH]c3ccc(C(N)=O)cc3c2C1 (racemic) [Frovatriptan racemate],759 nM,148 nM,> 10000 nM,> 10000 nM,> 10000 nM,> 10000 nM,–,–
CNS(=O)(=O)Cc1ccc2[nH]cc(CCCN3CCN(c4ncncc4OC)CC3)c2c1 [Avitriptan fumarate],646 nM,63.1 nM,> 10000 nM,123 nM,7760 nM,–,–,–
N#Cc1ccc(N2CCN(C(=O)COc3ccc4[nH]cc(CCN)c4c3)CC2)cc1 [Donitriptan hydrochloride],182 nM,38 nM,1150 nM,7.94 nM,1480 nM,–,–,–
CN1CCC[C@@H]1Cc1c[nH]c2ccc(CCS(=O)(=O)c3ccccc3)cc12 [Eletriptan hydrobromide],417 nM,6.31 nM,1820 nM,851 nM,3800 nM,–,–,–
CN(C)[C@@H]1CCc2[nH]c3ccc(NC(=O)c4ccc(F)cc4)cc3c2C1 [LY344864 hydrochloride],> 10000 nM,759 nM,> 10000 nM,–,–,–,> 10000 nM,7760 nM
CNS(=O)(=O)CCc1ccc2[nH]cc(C3CCN(C)CC3)c2c1 [Naratriptan hydrochloride],302 nM,49 nM,> 10000 nM,> 10000 nM,> 10000 nM,> 10000 nM,–,–
